The test system of assay [1] is TNFα production in human whole blood. The assay is described as follows: Human whole blood assay, LPS-stimulated TNFα production. The class given is cell-based. The conditions noted are these: inhibition of TNFα production. On the procedure: The ability of a test compound to inhibit TNFα production was also assessed in a human whole blood assay. Human whole blood secretes TNFα when stimulated with LPS. […] Plates were incubated for 30 minutes at 37° C. (humidified incubator), prior to addition of 20 μl LPS (final concentration 10 μg/ml). Culture medium was added to control wells. Six “LPS alone” and six “medium alone” controls were included on each plate. A known TNFα synthesis/secretion inhibitor was included in each test. Plates were incubated for 6 hours at 37° C. (humidified incubator). Plates were centrifuged (2000 rpm for 10 minutes) and 80 μl plasma removed and stored at −80° C. (Corning 3799 plates). TNFα levels were measured by ELISA using paired antibodies from R&D Systems (catalogue nos. MAB610 and BAF210).

A further assay addresses T1, p38α (Homo sapiens, UniProt Q16539).
T1 construct: c-myc (N); 6His (N); made in house; host or cells: E. coli (PET vectors)
The experiment in a line: In vitro enzyme assay, p38α kinase. The class given is biochemical.

Molecules are shown by their SMILES.

T1 sequence (Q16539 whole entry): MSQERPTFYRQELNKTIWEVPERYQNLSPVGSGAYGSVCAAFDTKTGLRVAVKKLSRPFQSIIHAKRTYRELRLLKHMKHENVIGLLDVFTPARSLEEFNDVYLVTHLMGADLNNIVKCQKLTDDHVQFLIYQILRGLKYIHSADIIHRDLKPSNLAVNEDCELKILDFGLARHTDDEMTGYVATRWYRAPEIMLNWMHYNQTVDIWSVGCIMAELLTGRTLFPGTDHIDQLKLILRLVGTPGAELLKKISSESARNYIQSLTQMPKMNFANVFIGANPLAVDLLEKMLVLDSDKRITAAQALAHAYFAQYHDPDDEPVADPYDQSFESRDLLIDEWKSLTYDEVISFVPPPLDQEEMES

In the case of `Cc1ccc(C(=O)NC2(C)CC2)cc1-n1cnc2ccc(N3CCN(C)CC3)cc2c1=O` [6 (a), 4-methyl-N-(1-methylcyclopropyl)-3-[6-(4-methylpiperazin-1-yl)-4-oxoquinazolin-3(4H)-yl]benzamide], the concentration for half-maximal inhibition (IC50) in assay [1] came out at 351 nM; at p38α, 81 nM.
With `Cc1ccc(NC(=O)c2ccnc(Cl)c2)cc1-n1cnc2ccc(N3CCN(C)CC3)cc2c1=O` [Comparator Compound A, 3-[5-(2-chloropyrid-4-ylcarbonylamino)-2-methylphenyl]-6-(4-methylpiperazin-1-yl)-3,4-dihydroquinazolin-4-one, reference compound], the IC50 turned out to be 3710 nM in assay [1] and 277 nM at p38α.
For the compound `Cc1ccc(NC(=O)c2cc(F)cc(F)c2)cc1-n1cnc2ccc(N3CCN(C)CC3)cc2c1=O` [Comparator Compound B, 3-[5-(3,5-difluorobenzamido)-2-methylphenyl]-6-(4-methylpiperazin-1-yl)-3,4-dihydroquinazolin-4-one, reference compound], the IC50 was 3850 nM in assay [1] and 41 nM on p38α.
As to `CCCN1CCCN(c2ccc3ncn(-c4cc(C(=O)NC5CC5)ccc4C)c(=O)c3c2)CC1` [Example 7, N-cyclopropyl-4-methyl-3-[4-oxo-6-(4-propyl-1,4-diazepan-1-yl)quinazolin-3(4H)-yl]benzamide], the results for the concentration for half-maximal inhibition (IC50) (in assay [1]; on p38α) were 34 nM and 8 nM, respectively.
Consider `Cc1ccc(C(=O)NC2CC2)cc1-n1cnc2ccc(OCCN(C)C)cc2c1=O` [Example 24, N-Cyclopropyl-3-[6-[2-(dimethylamino)ethoxy]-4-oxoquinazolin-3(4H)-yl]-4-methylbenzamide], for which the figures for the half-inhibitory concentration (IC50) (in assay [1]; against p38α) were 17 nM and 19 nM, respectively.

Usually IC50 stands for the concentration at which inhibition is half-maximal.

The values above are taken from patent US7750154B2, “Amide derivatives” (AstraZeneca AB, priority 2003, dated 2010).
